In US8735414B2 (priority 2009, dated 2014) one finds IC50 and melting point data, which are given here for 19 molecules.

Series [1] concerns bicistronic HCV replicon (replicon RNA, GenBank Accession No. AJ242654). In words: HCV Replicon Assay. It is filed as cell-based. The following applies: Hepatitis C virus, 72 h, read-out: Replicon IC50.

Each structure is given as a SMILES string.

On to `C[C@H](NS(=O)(=O)c1ccc(-c2c(C#N)c3ccc(C#N)cc3n2CC2CC2)nc1)C(F)(F)F` [compound 349, 6-[3,6-dicyano-1-(cyclopropylmethyl)-1H-indol-2-yl]-N-[(2S)-1,1,1-trifluoropropan-2-yl]pyridine-3-sulfonamide], for which the melting point – broadly, the temperature of the solid-liquid transition – was in the range of 187 to 188 °C. In addition, the IC50 (as a rule, the midpoint of a concentration-inhibition curve) in series [1] lay in the range of 500 to 2000 nM.
The like results for `COc1ccc2c(C#N)c(-c3ncc(S(=O)(=O)N[C@@H](C)C(F)(F)F)cn3)n(C3CCC3)c2c1` [compound 405, 2-(3-cyano-1-cyclobutyl-6-methoxy-1H-indol-2-yl)-N-[(2S)-1,1,1-trifluoropropan-2-yl]pyrimidine-5-sulfonamide] were, in that order, 254 to 255 °C and below 500 nM.
`CC(C)(C)S(=O)(=O)Nc1ccc(-c2c(C#N)c3cc(F)c(OC(F)F)cc3n2C2CCCCC2)cn1` [compound 1065, N-{5-[3-cyano-1-cyclohexyl-6-(difluoromethoxy)-5-fluoro-1H-indol-2-yl]pyridin-2-yl}-2-methylpropane-2-sulfonamide] showed a melting point of 278 to 280 °C. Further, the IC50 in series [1] is below 500 nM.
Consider `C[C@H](NS(=O)(=O)c1cnc(-c2c(C#N)c3cc(F)ccc3n2C2CCCC2)nc1)C1CC1` [compound 530, 2-(3-cyano-1-cyclopentyl-5-fluoro-1H-indol-2-yl)-N-[(1S)-1-cyclopropylethyl]pyrimidine-5-sulfonamide], for which the melting point was in the range of 184 to 186 °C. In addition, in series [1], the IC50 was below 500 nM.
The like results for `Cc1cc2c(cc1Cl)c(C#N)c(-c1ccc(S(=O)(=O)NC(CF)CF)cn1)n2C1CCC1` [compound 444, 6-(5-chloro-3-cyano-1-cyclobutyl-6-methyl-1H-indol-2-yl)-N-(1,3-difluoropropan-2-yl)pyridine-3-sulfonamide] were, in that order, 189 to 193 °C and below 500 nM.
The like results for `Cc1cc2c(cc1F)c(C(N)=O)c(-c1ccc(S(=O)(=O)N[C@H](C)C(F)(F)F)cn1)n2C1CCC1` [compound 732, 1-cyclobutyl-5-fluoro-6-methyl-2-(5-{[(2R)-1,1,1-trifluoropropan-2-yl]sulfamoyl}pyridin-2-yl)-1H-indole-3-carboxamide] were, in that order, 195 to 197 °C and below 500 nM.
The like results for `CCc1cc2c(cc1F)c(C#N)c(-c1ccc(S(=O)(=O)N[C@@H](C)C(F)(F)F)cn1)n2-c1cccc(C)c1` [compound 1009, 6-[3-cyano-6-ethyl-5-fluoro-1-(3-methylphenyl)-1H-indol-2-yl]-N-[(2S)-1,1,1-trifluoropropan-2-yl]pyridine-3-sulfonamide] were, in that order, 193 to 198 °C and below 500 nM.
`Cc1cc2c(cc1F)c(C#N)c(-c1ccc(S(=O)(=O)NC(C)(C)C)cn1)n2-c1ccccc1` [compound 1108, N-tert-butyl-6-(3-cyano-5-fluoro-6-methyl-1-phenyl-1H-indol-2-yl)pyridine-3-sulfonamide] gave a melting point of 200.6 to 202.4 °C. Further, the IC50 in series [1] is below 500 nM.
The like results for `Cc1cc2c(cc1F)c(C#N)c(-c1ccc(S(=O)(=O)N[C@@H](C)C(F)(F)F)cn1)n2-c1ccsc1Cl` [compound 1057, 6-[1-(2-chlorothiophen-3-yl)-3-cyano-5-fluoro-6-methyl-1H-indol-2-yl]-N-[(2S)-1,1,1-trifluoropropan-2-yl]pyridine-3-sulfonamide] were, in that order, 226.7 to 231.8 °C and below 500 nM.
The like results for `C[C@H](NS(=O)(=O)c1ccc(-c2c(C#N)c3cc(F)ccc3n2-c2ncccn2)nc1)C(F)(F)F` [compound 601, 6-[3-cyano-5-fluoro-1-(pyrimidin-2-yl)-1H-indol-2-yl]-N-[(2S)-1,1,1-trifluoropropan-2-yl]pyridine-3-sulfonamide] were, in that order, 201 to 203 °C and below 500 nM.
The like results for `Cc1ccc2c(C#N)c(-c3ncc(S(=O)(=O)N[C@@H](C)C(F)(F)F)cn3)n(CC3CC3)c2c1` [compound 402, 2-[3-cyano-1-(cyclopropylmethyl)-6-methyl-1H-indol-2-yl]-N-[(2S)-1,1,1-trifluoropropan-2-yl]pyrimidine-5-sulfonamide] were, in that order, 259 to 260 °C and below 500 nM.
Consider `C[C@H](NS(=O)(=O)c1cnc(-c2c(C#N)c3ccc(CC(F)F)cc3n2C2CCC2)nc1)C1CC1` [compound 592, 2-[3-cyano-1-cyclobutyl-6-(2,2-difluoroethyl)-1H-indol-2-yl]-N-[(1S)-1-cyclopropylethyl]pyrimidine-5-sulfonamide], for which the melting point is 168 to 175 °C. The concentration for half-maximal inhibition (IC50) in series [1] was below 500 nM.
The like results for `Cc1cc2c(cc1F)c(C#N)c(-c1ncc(S(=O)(=O)NC(CF)CF)cn1)n2C1CCC1` [compound 146, 2-(3-cyano-1-cyclobutyl-5-fluoro-6-methyl-1H-indol-2-yl)-N-(1,3-difluoropropan-2-yl)pyrimidine-5-sulfonamide] were, in that order, 243 to 249 °C and below 500 nM.
On to `C[C@H](NS(=O)(=O)c1cnc(-c2c(C#N)c3cc(F)ccc3n2C2CCCC2)nc1)C(F)(F)F` [compound 547, 2-(3-cyano-1-cyclopentyl-5-fluoro-1H-indol-2-yl)-N-[(2S)-1,1,1-trifluoropropan-2-yl]pyrimidine-5-sulfonamide], for which the melting point was 214 to 218 °C. In addition, in series [1], the half-inhibitory concentration (IC50) was below 500 nM.
The like results for `N#Cc1c(-c2ccc(S(=O)(=O)NC(CF)CF)cn2)n(CC2CC2)c2cc(OC(F)(F)F)ccc12` [compound 68, 6-[3-cyano-1-(cyclopropylmethyl)-6-(trifluoromethoxy)-1H-indol-2-yl]-N-(1,3-difluoropropan-2-yl)pyridine-3-sulfonamide] were, in that order, 132 to 133 °C and below 500 nM.
The matching figures for `CCc1cc2c(cc1F)c(C(N)=O)c(-c1ccc(S(=O)(=O)N[C@@H](C)C(F)(F)F)cn1)n2-c1cc(C)ccn1` [compound 980, 6-ethyl-5-fluoro-1-(4-methylpyridin-2-yl)-2-(5-{[(2S)-1,1,1-trifluoropropan-2-yl]sulfamoyl}pyridin-2-yl)-1H-indole-3-carboxamide]: 137 to 145 °C and 500 to 2000 nM.
In turn, `N#Cc1c(-c2ncc(S(=O)(=O)NC(CF)CF)cn2)n(C2CCCC2)c2cc(F)ccc12` [compound 166, 2-(3-cyano-1-cyclopentyl-6-fluoro-1H-indol-2-yl)-N-(1,3-difluoropropan-2-yl)pyrimidine-5-sulfonamide] yielded a melting point of 167 to 169 °C. Further, the IC50 in series [1] was below 500 nM.
The matching figures for `Cc1cc2c(C#N)c(-c3ccc(S(=O)(=O)N[C@@H](C)C(F)(F)F)cn3)n(C3CCC3)c2cc1Cl` [compound 506, 6-(6-chloro-3-cyano-1-cyclobutyl-5-methyl-1H-indol-2-yl)-N-[(2S)-1,1,1-trifluoropropan-2-yl]pyridine-3-sulfonamide]: 198 to 198.5 °C and below 500 nM.
Regarding `N#Cc1c(-c2ccc(S(=O)(=O)NC(CF)CF)cn2)n(C2CCCC2)c2c(F)cccc12` [compound 87, 6-(3-cyano-1-cyclopentyl-7-fluoro-1H-indol-2-yl)-N-(1,3-difluoropropan-2-yl)pyridine-3-sulfonamide], the melting point lay in the range of 128 to 129 °C. Besides, in series [1], the half-maximal inhibitory concentration (IC50) is below 500 nM.
